Values joined by “and” are separate entries in the source; they are usually repeats but may differ in a detail not shown here. Identical values can stand only once.
target: T1, pure CA11 enzyme from human erythrocyte (Homo sapiens, UniProt P00918); assay: Carbonic anhydrase activity assay, micromethod of Maren; format: biochemical; conditions: concentration that lowers the enzyme activity to half; 0°-4° C.; phenol red endpoint, pH 9.9 to 6.8
T1 construct: pure CA11 enzyme from human erythrocyte; from tissue; host or cells: human erythrocyte
Experimental: Carbonic anhydrase activity was assayed according to the micromethod of Maren (J. Pharmacol. Exptl. Therap., 130, 26-29, 1960). All solutions and reagents were maintained at 0°-4° C. The final assay mixture contained 16 mM phenol red, added enzyme and 62.5 mM sodium carbonate/bicarbonate. Its volume was kept constant at 0.8 mL. The time required for the added enzyme to lower the pH of CO2 -saturated carbonate/bicarbonate buffer from pH 9.9 to 6.8 was measured using the color change of phenol red as endpoint. T1 is the time recorded for the reaction containing no enzyme. T2 is the time recorded for the reaction containing pure CA11 enzyme from human erythrocyte, or an unknown amount in a sample. Enzyme activities (unit) were calculated using the formula:
Unit/ug=(T1 -T2)/(T2 *ug protein used in assay)
IC50 of a carbonic anhydrase inhibitor is the concentration that lowers the enzyme activity to half.

SMILES | IC50
CN(C)Cc1cc(C(=O)c2cc(S(N)(=O)=O)cs2)ccc1O [5-(4-hydroxy-3-(N,N-dimethylaminomethyl)benzoyl)-3-thiophene sulfonamide] | 30 nM
NS(=O)(=O)c1csc(C(=O)c2cccc(O)c2)c1 [5-(3-hydroxybenzoyl)-3-thiophene sulfonamide] | 6.7 nM
CCOC(=O)c1ccc(C(=O)c2cc(S(N)(=O)=O)cs2)cc1 [5-(4-ethoxycarbonylbenzoyl)-3-thiophene sulfonamide] | 6 nM
NS(=O)(=O)c1csc(C(=O)c2cc(F)cc(F)c2)c1 [5-(3.5-difluorobenzoyl)-3-thiophene sulfonamide] | 15 nM
CC(=O)OC(c1ccccc1)c1cc(S(N)(=O)=O)cs1 (stereo not shown) [5-[(phenyl)(acetoxy)methyl]-3-thiophene sulfonamide] | 90 nM
NS(=O)(=O)c1csc(C(=O)c2cccc(OC(=O)c3ccccc3)c2)c1 | 5.3 nM
CCCCc1ccc(C(=O)c2cc(S(N)(=O)=O)cs2)cc1 [5-(4-butylbenzoyl)-3-thiophene sulfonamide] | 8.7 nM
CCCCC(O)c1cc(S(N)(=O)=O)cs1 (stereo not shown) [5-(1-hydroxy-n-pentyl)-3-thiophene sulfonamide] | 32 nM
COc1ccc(C(O)c2cc(S(N)(=O)=O)cs2)cc1 (stereo not shown) [5-(4-methoxybenzhydrol)-3-thiophene sulfonamide] | 16 nM
CCCCC(=NO)c1cc(S(N)(=O)=O)cs1 [5-(1-pentanoyl)-3-thiophene sulfonamide, oxime] | 22 nM
NS(=O)(=O)c1csc(C(=O)c2ccccn2)c1 [[5-(3-sulfonamidothienyl)][2-pyridyl] ketone] | 19 nM
NS(=O)(=O)c1csc(C(O)c2ccc(C=O)cc2)c1 (stereo not shown) [5-(4-formylbenzhydrol)-3-thiophene sulfonamide] | 18 nM
COc1ccc(C(=NO)c2cc(S(N)(=O)=O)cs2)cc1 [5-(4-methoxybenzoyl)-3-thiophene sulfonamide, oxime] | 31 nM
NS(=O)(=O)c1csc(C(=O)c2cccc(F)c2)c1 [5-(3-fluorobenzoyl)-3-thiophene sulfonamide] | 12 nM
NS(=O)(=O)c1csc(C(O)c2cccc(O)c2)c1 (stereo not shown) [5-(3-hydroxybenzhydrol)-3-thiophene sulfonamide] | 37 nM
NS(=O)(=O)c1csc(C(=O)c2cccc(C(=O)O)c2)c1 [5-(3-carboxylbenzoyl)-3-thiophene sulfonamide] | 11 nM and 14 nM
COC(c1cccc(C(F)(F)F)c1)c1cc(S(N)(=O)=O)cs1 (stereo not shown) [5-[(methoxy)(3-trifluoromethylphenyl)methyl]-3-thiophene sulfonamide] | 18 nM
NS(=O)(=O)c1csc(C(=O)c2ccc(CO)cc2)c1 [5-(4-hydroxymethylbenzoyl)-3-thiophene sulfonamide] | 17 nM
CCC(=O)Oc1ccc(C(=O)c2cc(S(N)(=O)=O)cs2)cc1 [5-(4-propionoxybenzoyl)-3-thiophene sulfonamide] | 9 nM
NS(=O)(=O)c1csc(C(O)c2ccc(O)cc2)c1 (stereo not shown) [5-(4-hydroxybenzhydrol)3-thiophene sulfonamide] | 26 nM

SMILES | IC50
NS(=O)(=O)c1csc(C(=O)c2ccc(C(=O)O)cc2)c1 [5-(4-carboxybenzoyl)-3-thiophene sulfonamide] | 3.4 nM and 5 nM
NS(=O)(=O)c1csc(C(=O)c2cccc(C(F)(F)F)c2)c1 [5-(3-trifluoromethylbenzoyl)-3-thiophene sulfonamide] | 8.3 nM
CCCCCCC(=O)c1cc(S(N)(=O)=O)cs1 [5-(1-heptanoyl)-3-thiophene sulfonamide] | 14 nM
CC(C)(C)OC(=O)c1ccc(C(=O)c2cc(S(N)(=O)=O)cs2)cc1 [5-(4-t-butoxycarbonylbenzoyl)-3-thiophene sulfonamide] | 3 nM
NS(=O)(=O)c1csc(C(=O)c2ccc(C=O)cc2)c1 [5-(4-formylbenzoyl)-3-thiophene sulfonamide] | 13 nM
NS(=O)(=O)c1csc(C(=O)c2ccccc2)c1 [5-benzoyl-3-thiophene sulfonamide] | 13 nM
NS(=O)(=O)c1csc(C(=O)c2ccc(O)cc2)c1 [5-(4-hydroxybenzoyl)-3-thiophene sulfonamide] | 17 nM
COc1ccc(C(=O)c2cc(S(N)(=O)=O)cs2)cc1 [5-(4-methoxybenzoyl)-3-thiophene sulfonamide] | 26 nM
CC(=O)Oc1ccc(C(=O)c2cc(S(N)(=O)=O)cs2)cc1 [5-(4-acetoxybenzoyl)-3-thiophene sulfonamide] | 12 nM and 3.6 nM
NS(=O)(=O)c1csc(C(=O)c2cccc(C=O)c2)c1 [5-(3-formylbenzoyl)-3-thiophene sulfonamide] | 7.3 nM
CN(C)Cc1cc(C(=O)c2cc(S(N)(=O)=O)cs2)cc(CN(C)C)c1O [5-(4-hydroxy-3,5-(bis-N,N-dimethylaminomethyl)benzoyl)-3-thiophene sulfonamide] | 155 nM
NS(=O)(=O)c1csc(C(=NO)c2ccccc2)c1 [5-benzoyl-3-thiophene sulfonamide, oxime] | 53 nM
NS(=O)(=O)c1csc(C(O)c2ccccc2)c1 (stereo not shown) [5-benzhydrol-3-thiophene sulfonamide, 5-(benzhydrol)-3-thiophene sulfonamide] | 74 nM
CCCCC(=O)c1cc(S(N)(=O)=O)cs1 [5-(1-pentanoyl)-3-thiophene sulfonamide] | 27 nM
NS(=O)(=O)c1csc(C(O)c2ccc(CO)cc2)c1 (stereo not shown) [5-(4-hydroxymethylbenzhydrol)-3-thiophene sulfonamide] | 41 nM
CCCCCCC(O)c1cc(S(N)(=O)=O)cs1 (stereo not shown) [5-(1-hydroxy-n-heptyl)-3-thiophene sulfonamide] | 31 nM
COC(c1ccc(CO)cc1)c1cc(S(N)(=O)=O)cs1 (stereo not shown) [5-[(methoxy)(4-hydroxymethylphenyl)]methyl-3-thiophene sulfonamide] | 13 nM
NS(=O)(=O)c1csc(C(O)c2ccccn2)c1 (stereo not shown) [5-[(hydroxy)(pyridyl)methyl]-3-thiophene sulfonamide] | 240 nM
CC(=O)OCc1ccc(C(=O)c2cc(S(N)(=O)=O)cs2)cc1 [5-(4-acetoxymethylbenzoyl)-3-thiophene sulfonamide] | 6 nM
NS(=O)(=O)c1csc(C(=O)c2ccccc2F)c1 [5-(2-fluorobenzoyl)-3-thiophene sulfonamide] | 18 nM

From US5300499A, “5-substituted 3-thiophene sulfonamides as antiglaucoma agents” (Allergan, Inc., priority 1992, dated 1994)
